Data from US20250346629A1, “USE OF D-ENANTIOMERIC PEPTIDE LIGANDS OF MONOMERIC ALPHA-SYNUCLEIN FOR THE THERAPY OF VARIOUS SYNUCLEINOPATHIES” (PRIAVOID GMBH, priority 2021, published 2025).
Square brackets hold non-standard residues; d marks the D form. Peptide text beside a SMILES is read from it.

What was measured:
α-syn = α-syn (Homo sapiens, UniProt P37840); test: Kinetic single-cycle SPR assay with α-syn and immobilized peptides, CMD200M (FIG. 11); format: binding; details: kinetic 1:1 interaction model
Procedure: The measurements were carried out using an 8K-Biacore device (Cytiva, USA). The interactions were measured using single-cycle kinetics experiments. In all assays, the peptide compounds were immobilized as ligands on the sensor surface and recombinant α-syn was injected into the flow as the analyte. […] Surface quenching was carried out with 1 M ethanolamine at pH 8.3. Unless stated otherwise, the kinetic experiments were carried out at a flow rate of 30 μl/min in PBS, pH 7.4. The surface was regenerated between cycles using 30 s injections of 2 M Gua-HCl at 30 μl/min. Data evaluation was performed using the evaluation software Biacore insight v3.0 (Cytiva, USA).
The experiment was carried out as an individual measurement.

full-length α-syn = full-length α-syn (Homo sapiens, UniProt P37840); test: MST measurement of fluorophore-labeled peptides with full-length α-syn (FIG. 10); format: binding; details: 100 nM labeled peptide, PBS pH 7.4, 25° C., individual measurement
Procedure: The peptides were fluorescence labeled by means of cysteine-maleimide coupling. SVD-1_Cys and SVD 1a_Cys were fluorescence labeled at the C-terminus with a fivefold or tenfold molar excess of TCEP and CF633-PEG2-maleimide (Sigma-Aldrich, USA). The labeling reaction was carried out in 25 mM NaPi, PH 7.0, for 2 h at RT. The labeled peptides were purified at 25° C. using an Agilent 1260 Infinity II System and a C-18 RP-HPLC column (Zorbax 300 SB-C8/SB-C 18, Agilent, USA). The mobile phases consisted of A: water+0.1% TFA, and B: acetonitrile+0.1% TFA. The fluorescence-labeled peptides and proteins were eluted with a gradient of 5-40% (v/v) B in 30 min. The fluorescence-labeled products were fractionated using the absorption wavelength of the fluorophore (CF633: 633 nm) and the pooled samples were subsequently lyophilized and redissolved in the appropriate buffer. The protein concentrations were determined by means of UV-vis and the fluorescence-labeled samples were stored at −20° C.
The experiments for microscale thermophoresis (MST) were carried out using a Monolith NT.115 device (NanoTemper Technologies GmbH, GE). Fluorescence-labeled peptides were diluted in PBS, PH 7.4 to a final concentration of 100 nM. […] The data was evaluated with the thermophoresis effect, using the NT analysis software (version 1.5.41) supplied by the manufacturer. […]

[1] = system: αSynA53T-YFP cells (HEK293T); test: Cell assay for seeded α-synuclein aggregation (FIG. 19); format: cell-based, human; details: seeded with 30 nM PFF oligomers, day 3, two-stage transfection
Procedure: A construct encoding full-length A53T-mutated human α-syn and fused with YFP at the C-terminus was synthesized and introduced into the pMK-RQ expression vector (GeneArt; Thermo Fisher Scientific, USA). The α-synA53T-YFP construct was sub-cloned using the restriction sites NheI (5′) and NotI (3′) in the vector pIRESpuro3 (Clontech; Takara Bio, JPN). HEK293T cells (American Type Culture Collection) were cultured in high-glucose Dulbecco's Modified Eagle's Medium (DMEM; Sigma-Aldrich, USA) which had 10% fetal calf serum (Sigma-Aldrich, USA), 50 units/ml penicillin, and also 50 μg/ml streptomycin (Sigma-Aldrich, USA) added thereto. The cells were cultured at 37° C. in a humidified atmosphere with 5% CO2.
The cells plated in DMEM were transfected with Lipofectamine 2000 (Invitrogen; Thermo Fisher Scientific, USA). Stable cells were selected in DMEM with 1 μg/ml puromycin (EMD Millipore, USA). Monoclonal cell lines were produced by means of fluorescence-activated cell sorting of a polyclonal cell population in 96-well plates using a MoFlo XDP cell sorter (Beckman Coulter, USA). […]
The plates were then incubated at 37° C. in a humidified atmosphere with 5% CO2. On the third day, the cells were imaged in an IN Cell Analyzer 6500HS system (Cytiva, USA) using the blue and green fluorescence channels, and analyzed by the IN Carta Image Analysis software (Cytiva, USA) which had been used to establish an algorithm for identifying intracellular aggregates in living cells. Four wells were used for each condition and 16 images were recorded per well and analyzed by a fully-automated algorithm in order to prevent distortions. […]
In order to validate the inhibitory effect of SVD-1a in cells, use was made of the α-synA53T-YFP cell system which stably expresses human α-syn with the familial A53T mutation, fused with YFP, in HEK293T cells, and the fluorescence-based detection of aggregates makes it possible to clearly show the strongly fluorescent spots within the cells against the background, intracellularly after seeding with PFF oligomers. […] Panels C, F and I show αSynA53T-YFP fluorescence. […]

Kd (α-syn; PBS 7.4, individual measurement): 0.1 nM | koff (α-syn; PBS 7.4, as printed for SVD-1a): 3.13e-05 s⁻¹ | Kd (full-length α-syn): 390 nM
SMILES: CC[C@@H](C)[C@@H](NC(=O)[C@@H](Cc1c[nH]cn1)NC(=O)[C@@H](CCC(=O)O)NC(=O)[C@@H](CCC(N)=O)NC(=O)[C@@H](Cc1c[nH]c2ccccc12)NC(=O)[C@@H](Cc1ccc(O)cc1)NC(=O)[C@H](NC(=O)[C@@H](CCC(=O)O)NC(=O)[C@@H](Cc1c[nH]cn1)NC(=O)[C@H](NC(=O)[C@H]1CCCN1C(=O)[C@@H](CC(C)C)NC(=O)[C@H](N)CCCNC(=N)N)[C@H](C)O)[C@H](C)O)C(=O)N[C@H](Cc1c[nH]c2ccccc12)C(=O)N[C@H](Cc1c[nH]cn1)C(=O)N[C@H](C)C(=O)N[C@H](CCCNC(=N)N)C(=O)N[C@H](CCCNC(=N)N)C(=O)N[C@H](CCCNC(=N)N)C(=O)N[C@H](CCCNC(=N)N)C(=O)N[C@H](CCCNC(=N)N)C(N)=O [SVD-1a, rlpthetywqehiwharrrrr] (H-[dR][dL][dP][dT][dH][dE][dT][dY][dW][dQ][dE][dH][dI][dW][dH][dA][dR][dR][dR][dR][dR]-NH2)
inhibition of α-syn aggregation in cells [1]: inhibited α-syn aggregation in αSynA53T-YFP cells in a dose-dependent manner
